Article PMC9917560, “Design, Synthesis and Antimicrobial Evaluation of New N-(1-Hydroxy-1,3-dihydrobenzo[c][1,2]oxaborol-6-yl)(hetero)aryl-2-carboxamides as Potential Inhibitors of Mycobacterial Leucyl-tRNA Synthetase” (International Journal of Molecular Sciences, 2023)
In brackets after ≈: the same amount, converted by molar mass. Like-named read-outs stand apart in the source and are kept apart here.

Columns and labels:
[1] = test system: Aspergillus fumigatus ATCC 204305; test: Antifungal microdilution broth (EUCAST); assay type: cell-based; details: Aspergillus fumigatus, ATCC204305, read-out: MIC Aspergillus fumigatus
[2] = test system: Aspergillus flavus CCM 8363; test: Antifungal microdilution broth (EUCAST); assay type: cell-based; details: Aspergillus flavus, CCM8363, read-out: MIC Aspergillus flavus
[3] = test system: methicillin-resistant Staphylococcus aureus subsp. aureus (MRSA) CCM 4750 (ATCC 43300); test: microbe, parasite or virus in culture; assay type: cell-based; details: read-out: MIC Methicillin-resistant Staphylococcus aureus subsp. aureus
[4] = test system: Escherichia coli CCM 3954 (ATCC 25922); test: Antibacterial microdilution broth (EUCAST); assay type: cell-based; details: Escherichia coli, read-out: MIC Escherichia coli
[5] = test system: Pseudomonas aeruginosa CCM 3955 (ATCC 27853); test: Antibacterial microdilution broth (EUCAST); assay type: cell-based; details: read-out: MIC Pseudomonas aeruginosa
[6] = test system: Candida parapsilosis CCM 8260 (ATCC 22019); test: Antifungal microdilution broth (EUCAST); assay type: cell-based; details: Lodderomyces parapsilosis, read-out: MIC Candida parapsilosis
[7] = test system: Enterococcus faecalis CCM 4224 (ATCC 29212); test: Antibacterial microdilution broth (EUCAST); assay type: cell-based; details: read-out: MIC Enterococcus faecalis
[8] = test system: HepG2 cell line; test: Cytotoxicity screening, CellTiter 96 assay; details: for IC50: Homo sapiens, HepG2, 24 h, read-out: IC50 HepG2
[9] = test system: Staphylococcus epidermidis CCM 4418 (ATCC 12228); test: Antibacterial microdilution broth (EUCAST); assay type: cell-based; details: read-out: MIC Staphylococcus epidermidis
[10] = test system: Candida albicans CCM 8320 (ATCC 24433); test: Antifungal microdilution broth (EUCAST); assay type: cell-based; details: Candida albicans, read-out: MIC Candida albicans
[11] = test system: Mycobacterium tuberculosis H37Rv CNCTC My 331/88 (ATCC 27294); test: Microplate Alamar Blue assay vs Mtb H37Rv; assay type: cell-based; details: Mycobacterium tuberculosis, pH 6.6, MABA, Middlebrook 7H9 pH 6.6, recalculated from µg/mL; read-out: MIC Mtb H37Rv
[12] = test system: Acinetobacter baumannii DSM 30007 (ATCC 19606); test: Antibacterial microdilution broth (EUCAST); assay type: cell-based; details: read-out: MIC Acinetobacter baumannii
[13] = test system: Mycolicibacterium smegmatis DSM 43,465 (ATCC 607); test: Antimycobacterial microdilution (resazurin) vs M. smegmatis; assay type: cell-based; details: Middlebrook 7H9, resazurin, read-out: MIC M. smeg.
[14] = test system: Staphylococcus aureus subsp. aureus CCM 4223 (ATCC 29213); test: Antibacterial microdilution broth (EUCAST); assay type: cell-based; details: read-out: MIC Staphylococcus aureus subsp. aureus
[15] = test system: Candida krusei CCM 8271 (ATCC 6258); test: Antifungal microdilution broth (EUCAST); assay type: cell-based; details: Pichia kudriavzevii, read-out: MIC Candida krusei
[16] = test system: Klebsiella pneumoniae CCM 4415 (ATCC 10031); test: Antibacterial microdilution broth (EUCAST); assay type: cell-based; details: Klebsiella pneumoniae, read-out: MIC Klebsiella pneumoniae
[17] = test system: Mycobacterium tuberculosis H37Ra ITM-M006710 (ATCC 9431); test: Antimycobacterial microdilution (resazurin) vs Mtb H37Ra; assay type: cell-based; details: Middlebrook 7H9, resazurin, recalculated from µg/mL, read-out: MIC Mtb H37Ra
[18] = test system: Mycobacterium avium DSM 44,156 (ATCC 25291); test: Antimycobacterial microdilution (resazurin) vs M. avium; assay type: cell-based; details: Mycobacterium avium, Middlebrook 7H9, resazurin; read-out: MIC M. avium
[19] = test system: Trichophyton interdigitale CCM 8377 (ATCC 9533); test: Antifungal microdilution broth (EUCAST); assay type: cell-based; details: Trichophyton interdigitale, read-out: MIC Trichophyton interdigitale
[20] = test system: Mycolicibacterium aurum DSM 43,999 (ATCC 23366); test: Antimycobacterial microdilution (resazurin) vs M. aurum; assay type: cell-based; details: read-out: MIC M. aurum
[21] = test system: Lichtheimia corymbifera CCM 8077; test: Antifungal microdilution broth (EUCAST); assay type: cell-based; details: Lichtheimia corymbifera, CCM8077, read-out: MIC Lichtheimia corymbifera
[22] = test system: Mycobacterium kansasii DSM 44,162 (ATCC 12478); test: Antimycobacterial microdilution (resazurin) vs M. kansasii; assay type: cell-based; details: read-out: MIC M. kansasii
[23] = test system: Candida tropicalis CCM 8264 (ATCC 750); test: Antifungal microdilution broth (EUCAST); assay type: cell-based; details: read-out: MIC Candida tropicalis

## Nc1nccnc1C(=O)Nc1ccc2c(c1)B(O)OC2 [Compound 6, 3-amino-N-(1-hydroxy-1,3-dihydrobenzo[c][1,2]oxaborol-6-yl)pyrazine-2-carboxamide]
[1]; 24h incubation
  MIC: > 500 µM
[1]; 48h incubation
  MIC: > 500 µM
[2]; 24h incubation
  MIC: > 500 µM
[2]; 48h incubation
  MIC: > 500 µM
[3]; 24 h
  MIC: > 500 µM
[3]; 48 h
  MIC: > 500 µM
[4]; 24h incubation
  MIC: > 500 µM
[4]; 48h incubation
  MIC: > 500 µM
[5]; 24h incubation
  MIC: > 500 µM
[5]; 48h incubation
  MIC: > 500 µM
[6]; 24h incubation
  MIC: > 500 µM
[6]; 48h incubation
  MIC: > 500 µM
[7]; 24h incubation
  MIC: > 500 µM
[7]; 48h incubation
  MIC: > 500 µM
[8]
  IC50: > 100 µM
[8]; tested up to 500 µM (2, 3), 250 µM (12, 17), 100 µM (6, 7, 11) because of solubility
  toxicity to HepG2 up to highest tested concentration: non-toxic
other
  melting point: 246.6 to 249.4 °C
[9]; 24h incubation
  MIC: > 500 µM
[9]; 48h incubation
  MIC: > 500 µM
[10]; 24h incubation
  MIC: > 500 µM
[10]; 48h incubation
  MIC: > 500 µM
[11]
  MIC: > 370 µM
[12]; 24h incubation
  MIC: > 500 µM
[12]; 48h incubation
  MIC: > 500 µM
[13]
  MIC: 463 µM (≈ 125 µg/mL)
[14]; 24h incubation
  MIC: > 500 µM
[14]; 48h incubation
  MIC: > 500 µM
[15]; 24h incubation
  MIC: > 500 µM
[15]; 48h incubation
  MIC: > 500 µM
[16]; 24h incubation
  MIC: > 500 µM
[16]; 48h incubation
  MIC: > 500 µM
[17]
  MIC: > 1850 µM
[18]
  MIC: > 1850 µM
[19]; 72h incubation
  MIC: > 500 µM
[19]; 120h incubation
  MIC: > 500 µM
[20]; Middlebrook 7H9, resazurin
  MIC: 14.5 µM (≈ 3.91 µg/mL)
[21]; 24h incubation
  MIC: > 500 µM
[21]; 48h incubation
  MIC: > 500 µM
[22]
  MIC: > 1850 µM
[23]; 24h incubation
  MIC: > 500 µM
[23]; 48h incubation
  MIC: > 500 µM

## O=C(Nc1ccc2c(c1)B(O)OC2)c1ccc(Cl)s1 [Compound 15, 5-chloro-N-(1-hydroxy-1,3-dihydrobenzo[c][1,2]oxaborol-6-yl)thiophene-2-carboxamide]
[1]; 24h incubation
  MIC: > 500 µM
[1]; 48h incubation
  MIC: > 500 µM
[2]; 24h incubation
  MIC: > 500 µM
[2]; 48h incubation
  MIC: > 500 µM
[3]; 24 h
  MIC: 500 µM (≈ 147 µg/mL)
[3]; 48 h
  MIC: 500 µM (≈ 147 µg/mL)
[4]; 24h incubation
  MIC: > 500 µM
[4]; 48h incubation
  MIC: > 500 µM
[5]; 24h incubation
  MIC: > 500 µM
[5]; 48h incubation
  MIC: > 500 µM
[6]; 24h incubation
  MIC: > 500 µM
[6]; 48h incubation
  MIC: > 500 µM
[7]; 24h incubation
  MIC: > 500 µM
[7]; 48h incubation
  MIC: > 500 µM
[8]
  IC50: 210 µM
other
  melting point: 234.9 to 237.1 °C
[9]; 24h incubation
  MIC: 500 µM (≈ 147 µg/mL)
[9]; 48h incubation
  MIC: 500 µM (≈ 147 µg/mL)
[10]; 24h incubation
  MIC: > 500 µM
[10]; 48h incubation
  MIC: > 500 µM
[11]
  MIC: 42.6 µM (≈ 12.5 µg/mL)
[12]; 24h incubation
  MIC: > 500 µM
[12]; 48h incubation
  MIC: > 500 µM
[13]
  MIC: 852 µM (≈ 250 µg/mL)
[14]; 24h incubation
  MIC: 500 µM (≈ 147 µg/mL)
[14]; 48h incubation
  MIC: 500 µM (≈ 147 µg/mL)
[15]; 24h incubation
  MIC: > 500 µM
[15]; 48h incubation
  MIC: > 500 µM
[16]; 24h incubation
  MIC: > 500 µM
[16]; 48h incubation
  MIC: > 500 µM
[17]
  MIC: 53.2 µM (≈ 15.6 µg/mL)
[18]
  MIC: 426 µM (≈ 125 µg/mL)
[19]; 72h incubation
  MIC: > 500 µM
[19]; 120h incubation
  MIC: > 500 µM
[20]
  MIC: 53.2 µM (≈ 15.6 µg/mL)
[21]; 24h incubation
  MIC: > 500 µM
[21]; 48h incubation
  MIC: > 500 µM
[22]; Middlebrook 7H9, resazurin
  MIC: 106 µM (≈ 31.3 µg/mL)
[23]; 24h incubation
  MIC: > 500 µM
[23]; 48h incubation
  MIC: > 500 µM
